We go through 24 compounds from patent US20260125347A1, “l,2-SUBSTITUTED 3-OXOPYRAZOLIDINE DERIVATIVES AS PROSTAGLANDIN E2 RECEPTOR 4 (EP4) AGONISTS FOR THE TREATMENT OF GASTROINTESTINAL AND PULMONARY DISEASES” (NXERA PHARMA UK LIMITED, priority 2022, published 2026).

One data set addresses T1, human EP4 (Homo sapiens, UniProt P35408).
T1 construct: expressed in transfected cells; host or cells: HEK293 cells transduced with EP4 BacMam virus (virus generated in SF9 cells)
In words: cAMP Gs functional assay (HTRF cAMP dynamic-2) in HEK293 cells transfected with EP4 Bacmam virus. The settings on record: for EC50: HEK293 cells expressing human EP4, 30 mins at 37° C., mid-point of the curve, read-out: cAMP human EP4 pEC50 (converted); for cAMP human EP4 Emax: HEK293 cells expressing human EP4, unit assumed; for cAMP human EP4 Emax / Emax: positive control 10 μM PGE2; for Emax: HEK293, HEK293 cells expressing human EP4. In kind it is cell-based. The procedure:
Cloning, Baculovirus generation, large scale infection of HEK293 cells and membrane preparation: Human prostaglandin E2 receptor 4 (EP4) was cloned into pBacMam expression vector (GeneScript, UK). Transposition of EP4 DNA was performed using Invitrogen's Bac-to-Bac Baculovirus Expression Systems. P0 baculovirus was generated by transfecting SF9 Cells with bacmid DNA using Cellfectin II transfection reagent (ThermoFisher Scientific, UK). Following P0 generation P1 virus was then generated ready for large scale infection and membrane preparation. HEK293 cells were grown in DMEM (ThermoFisher Scientific, UK), supplemented with 10% heat inactivated fetal bovine serum (FBS). Cells were infected at a seeding density of 3.5 million cells/mL in 500 cm^3 flasks at 5% v/v EP4 Bacman. Expression was carried out over a 36 hr period at 37° C. with 5% CO2. The cells were removed using PBS and a cell scrapper. The cell culture was centrifuged at 2500 RPM for 10 mins at 4° C. The supernatant was then poured off and the pellet stored at −80° C. The pellet was defrosted and re-suspended in 15 mL of homogenising buffer (20 mM HEPES, 10 mM EDTA, pH 7.4). Then homogenised in mechanical homogeniser (VMR) for 10 seconds. The membrane was centrifuged in centrifuge tubes at 40,000 g for 15 mins at 4° C. The supernatant was poured away and re-suspended in 15 mL of homogenising buffer. Homogenised for 20 seconds. The membrane was centrifuged at 40,000 g for 45 mins at 4° C. The membrane was re-suspended in 3 mL of storage buffer (20 mM HEPES, 0.1 mM EDTA, pH 7.4) mixing well. The resulting membranes were then stored at −80° C. cAMP Gs Functional Assay: CAMP production following EP4 receptor activation was determined using the Homogeneous Time-Resolved Fluorescence (HTRF) CAMP dynamic-2 assay (Cisbio, France). HEK293 cells were transfected using a 0.5% EP4 Bacmam virus for 36 hours, before dissociating the cells, and freezing at −150° C. On the day of testing, increasing concentration of test compounds, alongside positive controls (10 μM PGE2 (Tocris, Abingdon, UK)) and negative control (DMSO (Sigma-Aldrich, UK) were added to a ProxiPlate-384 Plus, White 384-shallow well Mircoplate, (PerkinElmer, USA) using the ECHO dispense. Cells were defrosted in a water bath and resuspended in DMEM supplemented with 10% FBS before centrifuging at 1200 RPM for 5 mins to form a pellet. The pellet was resuspended in assay buffer (DMEM+0.5 mM IBMX (Tocris, Abingdon, UK)) to 0.5×10^6 cells/mL. Cell suspension, for a final assay concentration of 5000 cell/well was added using the multidrop to the pre-dispensed assay plate. The plate was then incubated at 37° C. for 30 mins, with 5% CO2. The CAMP production was determined as manufacturer's instructions, before plates were read on a PheraStar fluorescence plate reader (BMG LabTech, Germany).
In general terms: TR-FRET usually uses a lanthanide donor and a delayed reading to cut background.

The test system of the next data set is Caco-2 cells. In words: Unidirectional Caco-2 cell permeability assay. The format is in vitro ADME. The settings on record: 10 μM, apical pH 6.5, basolateral pH 7.4, 1 hour, 37° C., n=2. The procedure:
(§1) Caco-2 cells (ECACC) were seeded onto 24-well Transwell plates at 2×10^5 cells per well and used in confluent monolayers after a 21 day culture at 37° C. under 5% CO2. Test compounds were incubated at 10 μM, 0.2% DMSO final, n=2 in assay buffer (Hanks balanced salt solution supplemented with 25 mM HEPES, adjusted to pH 6.5). Hanks balanced salt solution supplemented with 25 mM HEPES, adjusted to pH 7.4 (0.2% DMSO final) was used for the basolateral chamber (as receiver).
(§2) Incubations were performed at 37° C., with samples removed from both donor and acceptor chambers at T=0 and 1 hour and compound analysed by mass spectrometry (LC-MS/MS) including an analytical internal standard (0.5 μM carbamazepine).
(§3) Apparent permeability (Papp) values are shown in Table 3 and were determined from the relationship:
(§4) Where V is the volume of each Transwell compartment (apical 125 μL, basolateral 600 μL), and concentrations are the relative MS responses for compound (normalized to internal standard) in the donor chamber before incubation and acceptor chamber at the end of the incubation Area=area of cells exposed for drug transfer (0.33 cm^2).
(§5) Lucifer Yellow (LY) was added to the apical buffer in all wells to assess viability of the cell layer. As LY cannot freely permeate lipophilic barriers, a high degree of LY transport indicates poor integrity of the cell layer and wells with a LY Papp>10×10^6 cm/s were rejected.
(§6) Compound recovery from the wells was determined from MS responses (normalized to internal standard) in donor and acceptor chambers at the end of incubation compared to response in the donor chamber pre-incubation.
For orientation: Passage across Caco-2 layers is used to estimate intestinal permeability.

Data set [1] in a line: Unidirectional Caco-2 cell permeability assay. The format is in vitro ADME. The settings on record: human, Caco-2, 10 μM, apical pH 6.5, basolateral pH 7.4, 1 hour, 37° C., n=2. The method, then:
as §1, §2, §3, §4, §5, §6

T1 sequence (P35408 whole entry): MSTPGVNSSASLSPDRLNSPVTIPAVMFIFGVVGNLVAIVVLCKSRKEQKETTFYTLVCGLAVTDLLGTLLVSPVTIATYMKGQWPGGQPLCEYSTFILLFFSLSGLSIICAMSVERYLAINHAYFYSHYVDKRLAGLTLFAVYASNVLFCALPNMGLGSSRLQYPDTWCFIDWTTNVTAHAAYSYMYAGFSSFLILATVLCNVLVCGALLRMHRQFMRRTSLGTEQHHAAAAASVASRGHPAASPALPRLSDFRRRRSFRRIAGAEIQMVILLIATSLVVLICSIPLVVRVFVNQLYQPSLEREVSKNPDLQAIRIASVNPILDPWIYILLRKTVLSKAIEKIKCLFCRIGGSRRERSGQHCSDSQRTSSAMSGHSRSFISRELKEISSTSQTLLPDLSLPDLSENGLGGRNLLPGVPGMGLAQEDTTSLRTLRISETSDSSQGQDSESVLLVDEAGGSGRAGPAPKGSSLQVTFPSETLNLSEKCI

In the case of `Cc1cc(S(N)(=O)=O)ccc1-c1cccc(C(O)CCN2CCC(=O)N2CCc2ccc(C(=O)O)cc2)c1` (single isomer, unassigned) [3; isomer 2], at human EP4, the EC50 is 1.26 nM and the cAMP human EP4 Emax was 98%. In addition, in the data set with Caco-2 cells, the “Caco-2 Mean Papp A-B” value is recorded as 0.72 10^−6 cm/s.

The Emax is the greatest response seen or fitted, relative to the assay's reference. For the compound `Cc1cc(C(N)=O)ccc1-c1cccc(C(O)CCN2CCC(=O)N2CCc2cc(F)c(C(=O)O)c(F)c2)c1` (single isomer, unassigned) [5; isomer 1], at human EP4, the maximum response (Emax) was 88% and the EC50 was 794 nM.

Turning to `Cc1cc(C(N)=O)ccc1-c1cccc(C(O)CCN2CCC(=O)N2CCc2cc(F)c(C(=O)O)c(F)c2)c1` (racemic) [5; racemate], on human EP4, the Emax amounted to 97% and the EC50 was 50.1 nM.

Regarding `Cc1cc(C(N)=O)ccc1-c1cccc(C(O)CCN2CCC(=O)N2CCc2ccc(-c3nnn[nH]3)cc2)c1` (single isomer, unassigned) [9; isomer 1], at human EP4, the Emax came out at 93% and the EC50 was 39.8 nM.

Take `Cc1cc(OS(N)(=O)=O)ccc1-c1cccc(C(O)CCN2CCC(=O)N2CCc2ccc(C(=O)O)cc2)c1` (racemic) [4; racemate]: at human EP4, the Emax is 97% and the EC50 was 6.31 nM.

Regarding `Cc1cc(S(N)(=O)=O)ccc1-c1cccc(C(O)CCN2CCC(=O)N2CCc2ccc(C(=O)O)cc2)c1` (single isomer, unassigned) [3; isomer 1], on human EP4, the maximum response (Emax) came to 93% and the EC50 was 39.8 nM. For the same compound, the “Caco-2 Mean Papp A-B” value in the data set with Caco-2 cells is on record as 0.23 10^−6 cm/s.

Usually Papp A→B stands for how fast a substance crosses the layer from the apical side. Read a high Papp A→B as fast passage. On to `Cc1cc(C(N)=O)ccc1-c1cccc(C(O)CCN2CCC(=O)N2CCc2ccc(C(=O)O)c(O)c2)c1` (single isomer, unassigned) [7; isomer 1], for which, on human EP4, the Emax was 99% and the EC50 is 3.98 nM. Further, in data set [1], the Papp A→B at 1 h, 10 μM was under 0.1 ×10⁻⁶ cm/s.

Take `Cc1cc(OS(N)(=O)=O)ccc1-c1cccc(C(O)CCN2CCC(=O)N2CCc2ccc(C(=O)O)cc2)c1` (single isomer, unassigned) [4; isomer 2]: at human EP4, the EC50 was 2.51 nM and the cAMP human EP4 Emax was 97%. Moreover, in the data set on Caco-2 cells, the “Caco-2 Mean Papp A-B” value was 0.67 10^−6 cm/s.

Regarding `Cc1cc(C(N)=O)ccc1-c1cccc(C(O)CCN2CCC(=O)N2CCc2ccc(-c3nnn[nH]3)cc2)c1` (racemic) [9; racemate], at human EP4, the maximal effect (Emax) turned out to be 97% and the EC50 was 0.158 nM. This compound also gave a Papp A→B at 1 h, 10 μM in data set [1] of under 0.1 ×10⁻⁶ cm/s.

Take `Cc1cc(C(N)=O)ccc1-c1cccc(C(O)CCN2CCC(=O)N2CCc2cc(F)c(C(=O)O)c(F)c2)c1` (single isomer, unassigned) [5; isomer 2]: at human EP4, the EC50 was 15.8 nM and the cAMP human EP4 Emax is 96%. In data set [1], this compound gave an apical-to-basolateral permeability (Papp A→B) at 1 h, 10 μM of under 0.1 ×10⁻⁶ cm/s.

For the compound `Cc1cc(OS(N)(=O)=O)ccc1-c1cccc(C(O)CCN2CCC(=O)N2CCc2ccc(C(=O)O)cc2)c1` (single isomer, unassigned) [4; isomer 1], on human EP4, the Emax amounted to 93% and the EC50 was 251 nM. The “Caco-2 Mean Papp A-B” value with Caco-2 cells is on record as 0.3 10^−6 cm/s.

Regarding `Cc1cc(S(N)(=O)=O)ccc1-c1cccc(C(O)CCN2CCC(=O)N2CCc2ccc(C(=O)O)c(O)c2)c1` (single isomer, unassigned) [6; isomer 1], on human EP4, the Emax stood at 97% and the EC50 is 3.98 nM. Besides, the Papp A→B at 1 h, 10 μM in data set [1] is under 0.1 ×10⁻⁶ cm/s.

Consider `Cc1cc(S(N)(=O)=O)ccc1-c1cccc(C(O)CCN2CCC(=O)N2CCc2ccc(C(=O)O)cc2)c1` (racemic) [3; racemate], for which, at human EP4, the Emax was determined as 97% and the EC50 was 2.51 nM. This compound registered a Papp A→B at 1 h, 10 μM in data set [1] of 0.3 ×10⁻⁶ cm/s.

Regarding `Cc1cc(O)ccc1-c1cccc(C(O)CCN2CCC(=O)N2CCc2ccc(C(=O)O)cc2)c1` (single isomer, unassigned) [1; isomer 1], on human EP4, the maximal response (Emax) stood at 97% and the EC50 is 50.1 nM. Further, the Papp A→B at 1 h, 10 μM in data set [1] amounted to 0.86 ×10⁻⁶ cm/s.

On to `Cc1cc(S(N)(=O)=O)ccc1-c1cccc(C(O)CCN2CCC(=O)N2CCc2cc(F)c(C(=O)O)c(F)c2)c1` (single isomer, unassigned) [8; isomer 1], for which, on human EP4, the Emax is 96% and the EC50 is 2510 nM.

Turning to `Cc1cc(S(N)(=O)=O)ccc1-c1cccc(C(O)CCN2CCC(=O)N2CCc2cc(F)c(C(=O)O)c(F)c2)c1` (single isomer, unassigned) [8; isomer 2], on human EP4, the EC50 is 31.6 nM and the cAMP human EP4 Emax came to 99%. In data set [1], this compound displayed a Papp A→B at 1 h, 10 μM of under 0.3 ×10⁻⁶ cm/s.

As to `Cc1cc(C(N)=O)ccc1-c1cccc(C(O)CCN2CCC(=O)N2CCc2ccc(C(=O)O)c(O)c2)c1` (single isomer, unassigned) [7; isomer 2], on human EP4, the EC50 was 100 nM and the cAMP human EP4 Emax came to 97%. In addition, the “Caco-2 Mean Papp A-B” value with Caco-2 cells is on record as <0.1 10^−6 cm/s.

In the case of `Cc1cc(C(N)=O)ccc1-c1cccc(C(O)CCN2CCC(=O)N2CCc2ccc(C(=O)O)cc2)c1` (single isomer, unassigned) [2; isomer 2], at human EP4, the EC50 is 0.501 nM and the cAMP human EP4 Emax turned out to be 98%. For the same compound, the “Caco-2 Mean Papp A-B” value in the data set on Caco-2 cells is <0.47 10^−6 cm/s.

On to `Cc1cc(O)ccc1-c1cccc(C(O)CCN2CCC(=O)N2CCc2ccc(C(=O)O)cc2)c1` (racemic) [1; racemate], for which, on human EP4, the Emax came to 97% and the EC50 was 3.98 nM. In data set [1], this compound yielded an apparent permeability from apical to basolateral (Papp A→B) at 1 h, 10 μM of 0.68 ×10⁻⁶ cm/s.

In the case of `Cc1cc(C(N)=O)ccc1-c1cccc(C(O)CCN2CCC(=O)N2CCc2ccc(C(=O)O)cc2)c1` (racemic) [2; racemate], on human EP4, the Emax came out at 99% and the EC50 was 3.16 nM.

On to `Cc1cc(C(N)=O)ccc1-c1cccc(C(O)CCN2CCC(=O)N2CCc2ccc(-c3nnn[nH]3)cc2)c1` (single isomer, unassigned) [9; isomer 2], for which, at human EP4, the EC50 is 0.251 nM and the cAMP human EP4 Emax amounted to 96%. The compound also returned a Papp A→B at 1 h, 10 μM in data set [1] of under 0.1 ×10⁻⁶ cm/s.

As to `Cc1cc(O)ccc1-c1cccc(C(O)CCN2CCC(=O)N2CCc2ccc(C(=O)O)cc2)c1` (single isomer, unassigned) [1; isomer 2], on human EP4, the EC50 was 2 nM and the cAMP human EP4 Emax turned out to be 99%.

For the compound `Cc1cc(S(N)(=O)=O)ccc1-c1cccc(C(O)CCN2CCC(=O)N2CCc2ccc(C(=O)O)c(O)c2)c1` (single isomer, unassigned) [6; isomer 2], on human EP4, the EC50 was 50.1 nM and the cAMP human EP4 Emax was 96%.

With `Cc1cc(C(N)=O)ccc1-c1cccc(C(O)CCN2CCC(=O)N2CCc2ccc(C(=O)O)cc2)c1` (single isomer, unassigned) [2; isomer 1], at human EP4, the Emax was determined as 95% and the EC50 is 158 nM. In addition, the Papp A→B at 1 h, 10 μM in data set [1] is under 0.29 ×10⁻⁶ cm/s.
